Results on one compound are retold here after US11099176B2 (priority 2015, dated 2021).

Assay [1] deals with Anaeromyxobacter dehalogenans adLacBP9, YP_466099.1, SEQ ID NO: 9 (expressed form SEQ ID NO: 23). Nature of the assay: Lactate binding by thermal stability shift and labeled conjugate. Particulars: thermostability vs ligand concentration; fluorescence response of labeled conjugate. An excerpt: (§1) These experiments comprise four successive steps: • 1. Synthetic gene construction. The amino acid sequence of the homology leads are back translated into DNA sequences. These are optimized for directing heterologous cytoplasmic expression of the protein homologues in E. coli, using either the OrfOpt or OrfMorph programs. These programs predict mRNA sequences that direct high-level protein expression in E. coli. The predicted gene sequences are assembled de novo from synthetic oligonucleotides. • 2. Heterologous protein expression of the homologues in E. coli. Plasmids carrying the synthetic expression constructs (see above) were transformed into KRX competent cells (Promega). Protein production was induced in bacterial cultures of these cultures. • 3. Purification of successfully expressed protein using immobilized metal affinity chromatography. • 4.
(§2) The thermal stability of purified LacBP candidate proteins was determined by measuring the temperature-dependence of the fluorescence signal of an extrinsically added dye, SYPRO, using a Roche LightCycler (Layton and Hellinga, 2010, Biochemistry, 49, 10831-41). The total fluorescence intensity, S, is given by S=βFfF+βUfU 11 where fF and fU are the fractions of protein in the folded and unfolded states, respectively, and βF and βUthe fluorescence baselines of these two states. To get the fractions of the two states, we have
(§3) To obtain the temperature dependence of the binding reaction, the Kd values of all the individually determined isotherms were fit the Gibbs-Hemholtz equation (Layton and Hellinga, 2010, Biochemistry, 49, 10831-41): […]

For assay [2], the target named is T1, Flexistipes sinusarabici fsLacBP13, YP_004603455.1, SEQ ID NO: 13 (expressed form SEQ ID NO: 27) (Flexistipes sinusarabici, UniProt F8E724).
T1 construct: thermal shift
Described as above. As to conditions: thermostability vs ligand concentration; fluorescence response of labeled conjugate.
Source text: as §1, §2, §3

Assay [3] addresses Pseudomonas stuztzeri psLacBP11, YP_006522676.1, SEQ ID NO: 11 (expressed form SEQ ID NO: 25) (Stutzerimonas nitrititolerans, UniProt A0ABX9V4I2). The assay is described as above. As to conditions: thermostability vs ligand concentration; fluorescence response of labeled conjugate.
Source text: as §1, §2, §3

Assay [4] has as its target Marinobacter sp. msLacBP6 variant Y187C, C-terminal βZif fusion, SEQ ID NO: 61, Acrylodan and βZif 5IAF (Fluorescein) conjugate. Description: Fluorescence titration of doubly labeled conjugate (ngmFRET). The class given is binding. An excerpt: (§4) We tested whether non-geometrically modulated fluorescence energy transfer (ngmFRET) effects in doubly labeled proteins could improve ratiometric signaling. To this end, we fused a small, disulfide-containing domain, βZif (Smith et al., 2005, Protein Sci, 14, 64-73) to the C-terminus of msLacBP6 187C (Table 5). This arrangement enables independent, site-specific labeling with two different, thiol-reactive fluorophores by first reacting at the unprotected thiol in the msLacBP6, followed by a reduction of the […] disulfide to deprotect and label this second site with a second fluorophore. […] Indirectly responsive partners are selected according to their excitation and emission characteristics such that energy transfer is established between the two fluorophores. […] Mechanisms for non-geometrically modulated FRET (ngmFRET) effects are detailed in Materials and Methods and PCT International Patent Application No. PCT/US 16/62958, filed Nov. 19, 2016, the entire content of which is incorporated herein by reference.
(§5) In the Badan conjugates, the ngmFRET coupling was so strong that all the donor excited state energy was transferred to the acceptor, and the signal was converted from a dichromatic to a monochromatic response. In the Acrylodan conjugates, an improvement in the dichromatic signal was observed (FIG. 7).
(§6) Temperatures were advanced in 1K steps. […] Under these experimental photobleaching was not observed.

The target of assay [5] is Marinobacter sp. msLacBP6 variant Y187C, C-terminal βZif fusion, SEQ ID NO: 61, Acrylodan and βZif Alexa532 conjugate. The description is as above. It is filed as binding.
Source text: as §4, §5, §6

For assay [6], the target named is Marinobacter sp. msLacBP6 variant Y187C (187C), SEQ ID NO: 38, Badan conjugate. Description: Fluorescence titration of conjugate. The class given is binding.
For assay [7], the target named is Marinobacter sp. msLacBP6 variant V192C, SEQ ID NO: 40, Acrylodan conjugate. Nature of the assay: Fluorescence titration of conjugate. The class given is binding. Particulars: read-out: trueKd (lactate); monochromatic, 500 nm.
Assay [8] has as its target T2, Marinobacter adhaerens maLacBP8 variant F189C, SEQ ID NO: 43, Acrylodan conjugate (Marinobacter adhaerens, UniProt E4PNW2, C105A/C90A/F252C).
T2 construct: Acrylodan on Cys189
Description: Fluorescence titration of conjugate. The class given is binding.

For assay [9], the target named is T3, Marinobacter adhaerens maLacBP8 variant F189C, SEQ ID NO: 43, Badan conjugate (Marinobacter adhaerens, UniProt E4PNW2, C105A/C90A/F252C).
T3 construct: Badan on Cys189
Description: Fluorescence titration of conjugate. The class given is binding.

The target in assay [10] is T4, Flexistipes sinusarabici fsLacBP13 variant W188C, SEQ ID NO: 47, Badan conjugate (Flexistipes sinusarabici, UniProt F8E724, W211C).
T4 construct: Badan on Cys188
Description: Fluorescence titration of conjugate. The class given is binding.

Assay [11] has as its target Marinobacter sp. msLacBP6 variant 187C, F68L, SEQ ID NO: 49, Acrylodan conjugate. Nature of the assay: Fluorescence titration of conjugate (affinity tuning). The class given is binding. Particulars: λ1 459, λ2 516 nm.
The target of assay [12] is Marinobacter sp. msLacBP6 variant 187C, P150A, SEQ ID NO: 54, Acrylodan conjugate. Described as above. It is filed as binding. Particulars: read-out: trueKd (lactate); monochromatic, 463 nm.
For assay [13], the target named is Marinobacter sp. msLacBP6 variant 187C, 70M, SEQ ID NO: 53, Acrylodan conjugate, immobilized on Ni-NTA beads. Description: Lactate titration of immobilized conjugate on magnetic Ni-NTA beads. As to conditions: read-out: trueKd (lactate), λ1 452, λ2 525 nm.

Like-named read-outs stand apart in the source and are kept apart here. Some results are limits rather than exact numbers.

T4 sequence (F8E724 entry or part of it W211C): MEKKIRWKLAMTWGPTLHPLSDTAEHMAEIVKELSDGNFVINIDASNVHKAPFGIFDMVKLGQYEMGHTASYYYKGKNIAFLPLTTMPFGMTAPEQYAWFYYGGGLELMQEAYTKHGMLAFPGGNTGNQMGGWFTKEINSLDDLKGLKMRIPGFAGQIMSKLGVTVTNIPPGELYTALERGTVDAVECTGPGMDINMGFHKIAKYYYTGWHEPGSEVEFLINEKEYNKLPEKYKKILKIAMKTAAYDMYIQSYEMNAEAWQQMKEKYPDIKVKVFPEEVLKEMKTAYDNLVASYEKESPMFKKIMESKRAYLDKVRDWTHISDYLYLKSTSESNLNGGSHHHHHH
T1 sequence (F8E724 entry or part of it): as the sequence (F8E724 entry or part of it W211C) above, with C188W counted along it
T3 sequence (E4PNW2 entry or part of it C90A/C105A/F252C): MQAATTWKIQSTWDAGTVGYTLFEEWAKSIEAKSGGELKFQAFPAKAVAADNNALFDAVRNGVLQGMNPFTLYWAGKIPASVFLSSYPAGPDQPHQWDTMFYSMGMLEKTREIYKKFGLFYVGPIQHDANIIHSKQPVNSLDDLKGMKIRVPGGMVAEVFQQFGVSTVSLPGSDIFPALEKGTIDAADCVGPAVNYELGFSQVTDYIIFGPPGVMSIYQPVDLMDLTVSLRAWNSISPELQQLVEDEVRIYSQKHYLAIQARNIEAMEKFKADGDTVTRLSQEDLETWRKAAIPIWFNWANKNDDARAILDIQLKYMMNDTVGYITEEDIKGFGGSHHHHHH
T2 sequence (E4PNW2 entry or part of it C90A/C105A/F252C): as above
Sequence of Pseudomonas stuztzeri psLacBP11, YP_006522676.1, SEQ ID NO: 11 (expressed form SEQ ID NO: 25) (A0ABX9V4I2 entry or part of it): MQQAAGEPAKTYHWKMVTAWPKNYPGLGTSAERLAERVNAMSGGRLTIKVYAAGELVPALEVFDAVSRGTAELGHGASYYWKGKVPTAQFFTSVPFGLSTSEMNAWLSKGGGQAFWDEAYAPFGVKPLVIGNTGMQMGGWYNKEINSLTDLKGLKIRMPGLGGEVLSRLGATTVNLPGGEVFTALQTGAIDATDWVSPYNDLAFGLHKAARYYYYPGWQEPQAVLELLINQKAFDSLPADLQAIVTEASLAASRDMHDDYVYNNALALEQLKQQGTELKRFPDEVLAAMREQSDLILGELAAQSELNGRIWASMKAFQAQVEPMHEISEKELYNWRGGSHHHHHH

Regarding `C[C@H](O)C(=O)O` [lactate], the “Lactate Binding” value in assay [1], in assay [2] and in [3] was “weak^f,g” throughout. In addition, the Kd in assay [4] (read-out: appKd (lactate), λ1 452, λ2 520 nm) was 300 µM; in assay [4] (read-out: trueKd (lactate), λ1 452, λ2 520 nm), 300 µM; in assay [5] (read-out: appKd (lactate), λ1 452, λ2 550 nm), 400 µM; in assay [5] (read-out: trueKd (lactate), λ1 452, λ2 550 nm), 300 µM; in assay [6] (read-out: appKd (lactate), approximate, text statement for Acrylodan and Badan conjugates), roughly 400 µM; in assay [6] (read-out: appKd (lactate), λ1 460, λ2 537 nm), 300 µM. The Kd was determined as 110 µM in [6] (read-out: appKd (lactate), λ1 539, λ2 459 nm (Table 6)); 200 µM in assay [6] (read-out: trueKd (lactate), λ1 460, λ2 537 nm); 250 µM in [6] (read-out: trueKd (lactate), λ1 539, λ2 459 nm (Table 6)); 20 µM in [7]; 1500 µM in [8]; 600 µM in [9]. In addition, the Kd in assay [10] is greater than 100000 µM; in assay [10] (read-out: trueKd (lactate), λ1 483, λ2 466 nm), greater than 100000 µM; in assay [11] (read-out: appKd (lactate)), 600 µM; in assay [11] (read-out: trueKd (lactate)) it was 500 µM; in assay [12], 6800 µM; in assay [13], 1200 µM.
